Laboratory results from patent US20240139167A1, “LYSOSOME-ASSOCIATED MEMBRANE PROTEIN TARGETING COMPOUNDS AND USES THEREOF” (HADASIT MEDICAL RESEARCH SERVICES AND DEVELOPMENT LTD., priority 2021, published 2024).

Experiments:
Format in all cases: in vivo
Gbe^ys/ys mice [1] = assay: Transmission electron microscopy of liver sections, lysosomal glycogen; conditions: 9.5 month old mice
From the text: FIGS. 6A-6E include bar graphs of autophagic flux, determined by the extent of lysosomal inhibitors-dependent increase in the ratio of lipidated to non-lipidated LC3 (LC3II/LC3I) (6A); representative TEM images of liver tissue from 9.5 month old Gbe^ys/ys mice treated with Compound 11, or 5% DMSO vehicle (6B), G: Glycogen (alpha particles) and polyglucosan (structures with variable electron densities), L: Lysosomes, M: Mitochondria; right panel: lysosomal glycogen stain was quantified by ImageJ “count particle” tool; micrograph of LAMP1 knocked down and control APBD primary skin fibroblasts treated or not with Compound 1 and lysosomal inhibitors (LI) and quantification of 3 experiments and results of Student's t-tests. *, p<0.1; **, p<0.05; ***, p<0.01 (6C); graphs of lysosomal pH changes determined in APBD primary fibroblasts transduced with lentiviruses encoding for GFP or GFP-shLAMP1 and treated or not with Compound 1 for 24 h and confocal microscope images of cells treated with Lysosensor and stained for PAS (6D); and bar graph of ATP production rate assay in LAMP1-KD and GFP (Control) cells treated for 24 h (chronic) or on assay (acute) with Compound 1 (6E).
Liver tissue was minced and fixed in a solution containing 2% paraformaldehyde, 2.5% glutaraldehyde (EM grade) in 0.1 M sodium cacodylate buffer pH 7.3 for 2 hours at RT, followed by 24 h at 4 ° C. […]

Gbe^ys/ys mice [2] = assay: Blood metabolic panel in Gbe^ys/ys mice
Protocol: FIGS. 3A-3I include a graph of the effect of Compound 1 on in vivo metabolism; mice were monitored by the Promethion High-Definition Behavioral Phenotyping System (Sable Instruments, Inc.) over a 24 hr period. Effective mass was calculated by power of 0.75. Data are mean±SEM from n=11 9 months old mice in the wt. control vehicle arm, n=6 9 months old mice in the GBE^ys/ys vehicle arm and n=7 9 months old mice in the Gbe^ys/ys 144DG11 (Compound 1)-treated arm. All injections were from the age of 4 months. […] Blood metabolic panel based on n=5, 9.5 months old mice treated as indicated (3I). Blood glucose was increased, and blood triglycerides decreased in Gbe^ys/ys […] by Compound 1 (p<0.05, Student's t-tests). *p<0.05 v wt. controls, #p<0.05 v GBE^ys/ys vehicle treated mice;
The inventors further tested whether Compound 1 is able to correct the hypoglycemia and hyperlipidemia observed in Gbe^ys/ys mice. Such an effect is expected from an agent capable of inducing the catabolism of liver glycogen with an ensuing rise in blood glucose. […] Muscle (creatine kinase) and liver (alanine transferase) functions were not affected by this treatment (FIG. 3I).

Gbe^ys/ys mice [3] = assay: Survival, weight and motor phenotypes in APBD mouse model
From the text: Pictures of 7-months old Gbe^ys/ys mice treated with vehicle (1L), or Compound 1 (1M) for 3 months prior to photography.
The presented experiments combine in vivo, ex vivo and in vitro studies on the therapeutic potential of the newly discovered compound Compound 1 for treating APBD. In the in vivo section, the inventors have tested Compound 1 for its capacity to correct disease phenotypes in Gbe^ys/ys female mice. Two arms, 5% DMSO vehicle and Compound 1, of initially n=7-9 animals each were used. […] Additional open field, gait, and extension reflex tests (FIGS. 1E-1H) also included a C57BL/6 wild type control arm of n=9 animals. Animals were excluded from the experiment if weight was reduced by >10% between sequential weightings or by >20% from initiation. […] 150 μL of 250 mg/kg Compound 1 in 5% DMSO were injected twice a week. Vehicle control was 5% DMSO. Injection was intravenous (IV) for the first month, followed by subcutaneous (SC) injection due to lack of injection space and scaring in animal tails. The inventors initiated the injections either at the age of 4 months, two months prior to disease onset, assuming a preferred prophylactic effect, or at the 6 months age of onset for comparison. Treatment was continued until the age of 10 months. The effect of Compound 1 on various motor parameters was tested approximately every two weeks. At the end of these experiments, some of the mice were sacrificed by cervical dislocation and tissues from n=2 wild type, n=7 Gbe^ys/ys vehicle-treated, and n=9 Compound 1-treated mice were collected, sectioned, fixed, and stained for diastase-resistant PG by PAS (FIGS. 2A-2C). Tissue glycogen was determined biochemically as described. In addition, Compound 1 pharmacokinetic profile was determined by LC-MS/MS in serum and tissues derived from n=3 mice/time point. Experimenters were blinded to treatment allocation.
In FIGS. 1A-1M the significance of overall trends was tested by Two-way ANOVA with repeated measures. […] The Bonferroni test was used to compare between Compound 1 and vehicle in a way which corrects for the multiple comparisons and is therefore very robust (since the threshold for determining significance at each time point is reduced in a manner inversely proportional to the number of comparisons). […] In FIGS. 4D and 6E the inventors used One Way ANOVA with Sidak's post-hoc correction for multiple comparisons. Other statistical tests used were Student t-tests.

COCCN(Cc1sccc1C)C(=O)c1cc(C)nc(O)c1 [Compound 1]
lysosomal glycogen in liver sections (Gbe^ys/ys mice [1]): decrease in lysosomal glycogen
hypoglycemia and hyperlipidemia (Gbe^ys/ys mice [2]; 9.5 months old mice): corrected to control levels
muscle (creatine kinase) and liver (alanine transferase) functions (Gbe^ys/ys mice [2]; 9.5 months old mice): not affected
blood glucose (Gbe^ys/ys mice [2]; 9.5 months old, p<0.05): increased
blood triglycerides (Gbe^ys/ys mice [2]; 9.5 months old, p<0.05): decreased
animal weight over time (Gbe^ys/ys mice [3]; 250 mg/kg twice a week from age 4 months): mitigated the decline in animal weight over time
animal survival (Gbe^ys/ys mice [3]; 250 mg/kg twice a week from age 4 months, vs 5% DMSO vehicle): significantly improved animal survival
ameliorating effect on open field, weight and overall extension reflex (Gbe^ys/ys mice [3]; administered after disease onset at the age 6 months): ameliorating effect did not take place
Extension reflex (Gbe^ys/ys mice [3]; administered at onset (6 months), at the age of 9 months): only parameter improved by the compound from the advanced stage of the disease
open field performance (Gbe^ys/ys mice [3]; from 8 months, 134 days post injection): improved open field performance
gait (stride length) (Gbe^ys/ys mice [3]; mouse age of 9 months): improved gait, or increased stride length
overall extension reflex (Gbe^ys/ys mice [3]; throughout the study period, p<0.05): significantly improved
